Experimental data: patent US4407805A, “Analgesic mixture of nalbuphine and zomepirac” (E. I. Du Pont de Nemours and Company, priority 1982, dated 1983)
Where two headings read alike, the source gives them in different places.

System: phenyl-p-benzoquinone induced writhing in mice
Test: phenyl-p-benzoquinone induced writhing test in mice (antiphenylquinone writhing), oral, with isobologram analysis
Type: in vivo, mouse (male CF1)
Conditions: 20 min; for ED50: read-out: ED50 dose; for % mice blocked: oral
Procedure: The phenyl-p-benzoquinone induced writhing test in mice [H. Blumberg et al., Proc. Soc. […] The method simply consists of reading the % ED50 DOSE for each dose ratio on the best fit regression analysis curve from the mouse isobologram, multiplying each component by its effective species dose, and then forming the ratio of the amount of nalbuphine to zomepirac. […] [E. W. Pelikan, The Pharmacologist, 1, 73 (1959).]
All solutions are prepared fresh daily.
Each mouse is used only once, then discarded.
In order to study the interaction between nalbuphine and zomepirac, 6 precise dosage ratios of nalbuphine hydrochloride and zomepirac are selected.
The nature of the analgetic interaction (addition, synergism, or antagonism) is determined by graphing the results in a Loewe isobologram [S. Loewe, Pharm. Rev. 9:237-242, (1957)]. The isobologram is a quantitative method for measuring interactions between drugs where dose-effect relationships are depicted in a multi-dimensional array with lines connecting dose pairs that are equieffective in relationship to a common pharmacological endpoint. In this instance, the antiphenylquinone writhing test is used to estimate a common level of analgesic activity (ED50 dose) for the two component drugs separately and for each fixed dose-ratio combination.
If such substitution increases the response, the mixing together of the compounds is said to potentiate their effects and synergism exists.
Consider ED50 doses of mixtures of X units of compound B with Y units of compound A, whose ED50 doses are β and α, respectively. Given the hypothesis of additivity, all doses of mixtures satisfying the straight line relation,
will be ED50 doses. To test the hypothesis of additivity, ED50 doses of mixtures are estimated through probit analysis of data from experiments run at various ratios of A to B. Linear and curvilinear regression models are fitted to the data to estimate the amounts of A in respective ED50 doses, given the amount of B, (or, conversely, the amount of B, given A).
The regression is fitted to the data by the method of least squares. Residual squared deviations about the line of best fit are minimized in directions along lines from the origin through respective data points on the isobologram, these lines making angles with X-axis, tan^-1 (Y/X). This is accomplished by a transformation prior to the […] analysis. Its inverse is applied to transform the coordinates of the regression curve back to the X,Y coordinates of the isobologram.
A statistically significant regression will refute the hypothesis.
The method of least squares utilizes jointly the information contained in all of the separate data points. Statistical significance of the curvilinearity of the regression model establishes the existence of synergism (or antagonism) of the compounds in the biological system studied. The parameters in the model describe its intensity over the range of mixture ratios, from 0 to 1, the nature of which is seen readily when the regression is plotted on the isobologram.

| Compound | ED50 (drug alone, twenty minutes post oral dosing, mouse antiphenylquinone writhing test) [mg/kg] | % mice blocked (nalbuphine HCl 0 + zomepirac sodium 0.29 mg/kg) [%] | % mice blocked (nalbuphine HCl 0 + zomepirac sodium 0.58 mg/kg) [%] | % mice blocked (nalbuphine HCl 0 + zomepirac sodium 1.16 mg/kg) [%] | % mice blocked (nalbuphine HCl 0 + zomepirac sodium 2.32 mg/kg) [%] | ED50 (Mus musculus, po) [mg/kg] | % mice blocked (nalbuphine HCl 2.75 + zomepirac sodium 0 mg/kg) [%] | % mice blocked (nalbuphine HCl 5.5 + zomepirac sodium 0 mg/kg) [%] | % mice blocked (nalbuphine HCl 11 + zomepirac sodium 0 mg/kg) [%] | % mice blocked (nalbuphine HCl 22 + zomepirac sodium 0 mg/kg) [%] | % mice blocked (nalbuphine HCl 44 + zomepirac sodium 0 mg/kg) [%] |
| --- | --- | --- | --- | --- | --- | --- | --- | --- | --- | --- | --- |
| Cc1cc(CC(=O)O)n(C)c1C(=O)c1ccc(Cl)cc1 [Zomepirac Sodium, 5-(4-chlorobenzoyl)-1,4-dimethyl-1H-pyrrole-2-acetic acid] | 1.66 | 13.3 | 20.0 | 31.1 | 75.6 | – | – | – | – | – | – |
| Oc1ccc2c3c1O[C@H]1[C@@H](O)CC[C@@]4(O)[C@@H](C2)N(CC2CCC2)CC[C@]314 [Nalbuphine, (-)-17-(cyclobutylmethyl)-4,5α-epoxymorphinan-3,6α,14-triol] | – | – | – | – | – | 12 | 15.6 | 24.4 | 62.2 | 68.9 | 84.4 |
